Data from PMC5919688, “Cyclic di-AMP regulation of osmotic homeostasis is essential in Group B Streptococcus” (PLoS Genetics, 2018).

Legend:
[1] = tested on: T1, BusR (rBusR) (Streptococcus agalactiae NEM316), ORF:6b20ee22; experiment: EMSA; details: 25 mM Na2HPO4/NaH2PO4 pH 8, 50 mM NaCl, 2 mM MgCl2, 1 mM DTT, 10% glycerol, 0.1 ug/ul poly(dI-dC), 0.02 ug/ul BSA, 20 min room temperature; 6% PAGE at 4 C
T1 sequence: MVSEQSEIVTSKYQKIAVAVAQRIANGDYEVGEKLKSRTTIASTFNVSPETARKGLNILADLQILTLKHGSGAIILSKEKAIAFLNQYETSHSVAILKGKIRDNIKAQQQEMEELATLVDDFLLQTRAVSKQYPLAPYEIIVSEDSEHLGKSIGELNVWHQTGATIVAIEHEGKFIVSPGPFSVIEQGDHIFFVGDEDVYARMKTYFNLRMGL

[2] = target: T2, DacA (rDacA) (Streptococcus agalactiae, UniProt Q8E051); experiment: RP-HPLC of c-di-AMP formation; format: biochemical; details: 2.5 uM rDacA, 1 mM ATP, 50 mM Tris pH 8.5, 100 mM NaCl, 10 mM MnCl2, 37 C
T2 construct: amino acids 96-243, transmembrane domain deleted, N-terminal 6xHis (pET28a), E. coli Bli5, purified
T2 sequence (Q8E051 96-243): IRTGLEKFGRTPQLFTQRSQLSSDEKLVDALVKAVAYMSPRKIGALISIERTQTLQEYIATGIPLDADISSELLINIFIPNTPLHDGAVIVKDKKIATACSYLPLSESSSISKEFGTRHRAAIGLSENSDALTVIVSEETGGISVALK

[3] = target: T3, KtrA (Gbs1678) (Streptococcus agalactiae, UniProt Q8E3S8); experiment: DRaCALA, […]-labelled c-di-AMP, whole E. coli extract; format: binding; details: […]P-c-di-AMP, […] Tris pH […] NaCl, […] MgCl2, room temperature; labelled compound; competition with […] cold nucleotide
T3 construct: full length, N-terminal His or His-MBP tag, expressed in E. coli Bli5, whole-cell extract
T3 sequence (Q8E3S8 1-223): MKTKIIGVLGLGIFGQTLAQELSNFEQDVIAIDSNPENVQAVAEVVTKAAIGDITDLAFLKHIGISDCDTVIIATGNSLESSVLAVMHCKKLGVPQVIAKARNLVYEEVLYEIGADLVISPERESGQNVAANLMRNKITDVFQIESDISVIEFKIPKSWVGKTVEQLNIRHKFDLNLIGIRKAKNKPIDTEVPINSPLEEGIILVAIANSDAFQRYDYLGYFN

[4] = target: T4, OpuCA (Gbs0235) (Streptococcus agalactiae, UniProt Q8E7C0); experiment: as above; format: binding; details: […]P-c-di-AMP, […] Tris pH […] NaCl, […] MgCl2, room temperature; labelled compound; competition with […] cold nucleotide
T4 construct: full length, N-terminal His-MBP tag (signal only with this tag), expressed in E. coli Bli5, whole-cell extract
T4 sequence (Q8E7C0 1-381): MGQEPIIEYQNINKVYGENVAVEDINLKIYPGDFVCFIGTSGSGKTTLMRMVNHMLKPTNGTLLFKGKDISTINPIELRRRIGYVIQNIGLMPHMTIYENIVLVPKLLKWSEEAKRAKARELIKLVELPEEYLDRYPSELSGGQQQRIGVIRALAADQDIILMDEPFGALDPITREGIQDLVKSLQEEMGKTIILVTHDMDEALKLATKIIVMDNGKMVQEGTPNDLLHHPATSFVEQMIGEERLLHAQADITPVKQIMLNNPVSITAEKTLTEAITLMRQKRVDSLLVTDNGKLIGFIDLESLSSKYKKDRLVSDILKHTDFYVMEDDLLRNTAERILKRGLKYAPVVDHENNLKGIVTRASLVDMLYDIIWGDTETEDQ

[5] = target: T5, TrkH (Gbs1639) (Streptococcus agalactiae, UniProt Q8DYA0); experiment: as above; format: binding; details: 1 nM 32P-c-di-AMP, 40 mM Tris pH 7.5, 100 mM NaCl, 10 mM MgCl2, room temperature; labelled compound; competition with 200 uM cold nucleotide
T5 construct: gene SAG1590; full length, N-terminal His tag (detected by Western only with the His tag), expressed in E. coli Bli5, whole-cell extract
T5 sequence (Q8DYA0 1-449): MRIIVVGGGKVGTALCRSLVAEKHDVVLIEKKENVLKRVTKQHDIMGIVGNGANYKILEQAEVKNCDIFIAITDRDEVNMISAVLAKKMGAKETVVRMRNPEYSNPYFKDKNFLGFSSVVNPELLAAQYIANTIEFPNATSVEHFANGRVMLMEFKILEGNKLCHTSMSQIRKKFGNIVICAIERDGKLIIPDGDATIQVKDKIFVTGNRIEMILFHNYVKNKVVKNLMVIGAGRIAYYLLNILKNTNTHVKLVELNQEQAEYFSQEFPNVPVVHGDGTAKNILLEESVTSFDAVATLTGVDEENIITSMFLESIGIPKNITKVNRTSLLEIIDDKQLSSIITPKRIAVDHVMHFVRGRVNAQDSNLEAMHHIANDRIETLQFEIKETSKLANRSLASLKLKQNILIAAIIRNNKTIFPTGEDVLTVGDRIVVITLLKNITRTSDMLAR

[6] = target: T6, BusR (Gbs1201) (Streptococcus agalactiae, UniProt I7JWA3); experiment: as above; format: binding; details: 1 nM 32P-c-di-AMP, 40 mM Tris pH 7.5, 100 mM NaCl, 10 mM MgCl2, room temperature; labelled compound; competition with 200 uM cold nucleotide
T6 construct: gene BM110_ORF1201; full length (213 aa), N-terminal His or His-MBP tag, expressed in E. coli Bli5, whole-cell extract
T6 sequence (I7JWA3 1-213): T1 sequence

Molecule | binding [1] | RP-HPLC of c-di-AMP formation [2] | DRaCALA, 32P-labelled c-di-AMP, whole E. coli extract [3] | DRaCALA, 32P-labelled c-di-AMP, whole E. coli extract [4] | DRaCALA, 32P-labelled c-di-AMP, whole E. coli extract [5] | DRaCALA, 32P-labelled c-di-AMP, whole E. coli extract [6]
AGTTGTAATATTAATACTAATAAGTCTTTAAATAATTCAATAATGCCATAACAATAATGGTGTGGGCTAATTAAAATATCTCTAAGCAAAGGTGTTGACATAAAGAGACCATACATGATATTATAGTTATGTTCTGTTTCGGCAGTTTATTTTTTTGAGTAAAAAAGTGACTACCCTTTTACGATACTTTAACGTCACTTTATAGATAAGACACATAACCTTAAAAATAAGATACGAAATT (double strand) [PbusAB EMSA fragment (245 bp)] | binds | – | – | – | – | –
Nc1ncnc2c1ncn2[C@@H]1O[C@H](COP(=O)(O)OP(=O)(O)OP(=O)(O)O)[C@@H](O)[C@H]1O [ATP] | – | the purified recombinant DacA protein produces c-di-AMP from two molecules of ATP | – | – | – | –
Nc1ncnc2c1ncn2[C@@H]1O[C@@H]2COP(=O)(O)O[C@H]3[C@@H](O)[C@H](n4cnc5c(N)ncnc54)O[C@@H]3COP(=O)(O)O[C@H]2[C@H]1O [c-di-AMP] | – | the purified recombinant DacA protein produces c-di-AMP from two molecules of ATP | C-di-AMP binds to four proteins: KtrA (Gbs1678) | C-di-AMP binds to four proteins: KtrA (Gbs1678), TrkH (Gbs1639), OpuCA (Gbs0235) | C-di-AMP binds to four proteins: KtrA (Gbs1678), TrkH (Gbs1639) | C-di-AMP binds to four proteins: KtrA (Gbs1678), TrkH (Gbs1639), OpuCA (Gbs0235) and Gbs1201
